Laboratory results from patent US20230145406A1, “DIVALENT METAL-CONTAINING BIOMATERIALS AND METHODS OF USE” (University of Oregon, priority 2021, published 2023).

Test: Precipitation in filtered concentrated cupric dilactate solution
Type: physicochemical
Conditions: cupric dilactate in water, sonicated, overnight 37° C., 0.45 μm filtered; over 3 weeks
Procedure: Increased concentrations of cupric dilactate were prepared for use in polymers to achieve higher loading. Excess of cupric dilactate in water (5 g in 10 ml) was prepared and sonicated for 30-120 minutes (15 minutes each x 2-8 times with 10 minutes break between each sonication session) and left overnight at 37° C. The solution obtained was cooled to room temperature and the green liquid containing cupric dilactate was separated from the undissolved cupric dilactate by aspiration and filtering through 0.45 μm syringe filter. […] This solution can be used for loading plugs, for example as described in Examples 1-3.

CC(O)C(=O)[O-].CC(O)C(=O)[O-].[Cu+2] (stereo not shown) [cupric dilactate]
precipitate in the filtrate: No precipitate was observed
